Here are results for 5 compounds from paper PMC3805035 (Proteins, 2010).

Test [1] deals with T1, abietadiene synthase (AgABS) (Abies grandis, UniProt Q38710).
T1 sequence (Q38710 71-868): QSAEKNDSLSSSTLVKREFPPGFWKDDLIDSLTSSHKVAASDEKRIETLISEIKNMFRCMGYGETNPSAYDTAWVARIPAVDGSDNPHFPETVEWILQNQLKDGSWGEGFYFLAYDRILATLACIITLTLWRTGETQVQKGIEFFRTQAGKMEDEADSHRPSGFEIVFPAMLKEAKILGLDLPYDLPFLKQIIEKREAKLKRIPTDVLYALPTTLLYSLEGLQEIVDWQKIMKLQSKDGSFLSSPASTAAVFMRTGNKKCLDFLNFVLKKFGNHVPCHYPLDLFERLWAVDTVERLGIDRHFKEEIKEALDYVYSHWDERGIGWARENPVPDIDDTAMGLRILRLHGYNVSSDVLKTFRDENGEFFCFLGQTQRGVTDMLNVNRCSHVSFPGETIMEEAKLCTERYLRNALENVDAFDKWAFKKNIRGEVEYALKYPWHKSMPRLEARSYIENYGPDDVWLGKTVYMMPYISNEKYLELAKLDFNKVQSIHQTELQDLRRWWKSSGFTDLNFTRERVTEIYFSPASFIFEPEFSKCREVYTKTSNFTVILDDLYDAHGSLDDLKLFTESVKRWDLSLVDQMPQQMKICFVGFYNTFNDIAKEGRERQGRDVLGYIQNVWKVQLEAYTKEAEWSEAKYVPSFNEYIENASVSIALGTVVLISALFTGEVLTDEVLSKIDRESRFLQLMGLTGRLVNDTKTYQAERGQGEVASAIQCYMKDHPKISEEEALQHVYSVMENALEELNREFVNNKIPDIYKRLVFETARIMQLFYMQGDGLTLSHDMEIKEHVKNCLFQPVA
In kind it is biochemical.

Test [2] has as its target T2, M. tuberculosis Rv3377c (halimadienyl diphosphate synthase) (Mycobacterium tuberculosis, UniProt O50406).
T2 sequence (O50406 1-501): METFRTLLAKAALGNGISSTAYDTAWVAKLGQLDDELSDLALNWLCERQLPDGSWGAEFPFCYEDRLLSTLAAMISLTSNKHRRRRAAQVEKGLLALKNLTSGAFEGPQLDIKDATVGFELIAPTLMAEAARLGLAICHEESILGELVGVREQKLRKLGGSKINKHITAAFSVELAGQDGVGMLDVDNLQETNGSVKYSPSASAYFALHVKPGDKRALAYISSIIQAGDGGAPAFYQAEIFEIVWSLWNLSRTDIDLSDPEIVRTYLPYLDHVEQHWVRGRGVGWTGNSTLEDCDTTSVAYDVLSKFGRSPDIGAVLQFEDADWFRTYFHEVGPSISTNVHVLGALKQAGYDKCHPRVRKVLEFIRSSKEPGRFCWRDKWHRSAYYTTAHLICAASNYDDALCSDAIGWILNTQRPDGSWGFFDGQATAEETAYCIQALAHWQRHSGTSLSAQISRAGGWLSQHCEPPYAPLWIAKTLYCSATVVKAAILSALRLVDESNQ
In kind it is biochemical.

Turning to `O=P(O)(O)C(O)(Cc1cnc2ccccn12)P(=O)(O)O` [minodronate], the “effect on ABS activity” value in test [1] is listed as “no effect”. Further, the “activity against the M. tuberculosis protein (Rv3377c)” value in test [2] is recorded as “no activity”. Regarding `CC(C)=CCCC(C)=CCCC(C)=CCC(P(=O)(O)O)P(=O)(O)O` [BPH-850, farnesylmethylene bisphosphonate], the “comparison of IC50 using GGPP or CPP as substrate, ABS” value in test [1] (GGPP versus CPP as substrate) is “about the same IC50”. In the case of `O=P(O)(O)C(O)(Cn1ccnc1)P(=O)(O)O` [zoledronate], the “effect on ABS activity” value in test [1] was “no effect”. In addition, the “activity against the M. tuberculosis protein (Rv3377c)” value in test [2] is “no activity”. With `C/C(=C\CC/C(C)=C/COP(=O)(O)OP(=O)(O)O)CC/C=C(\C)CCCN(C)C` [15-aza-GGPP], the IC50 in test [2] (read-out: Rv3377c inhibition (quantity not given)) turned out to be 5 nM. In turn, `C=CCN(C)CCCCCCCCCCCCCCCC(=O)OC` [BPH-922] yielded an IC50 in test [1] of 250 nM.
